Data: patent publication US20170253601A1, “Substituted Pyrrolidine Compounds” (EPIZYME, INC., priority 2014, published 2017)

Target: T1, SMYD2 (Homo sapiens, UniProt Q9NRG4)
T1 construct: Full length SMYD2 (NP 064582.2) was cloned; His6 (N, cleaved yes); FLAG (N); made in house; host or cells: Sf9 insect cells
Test: SMYD2 Biochemical Assay (3H-SAM, biotinylated peptide substrate, Flashplate)
Conditions: Table 2; average of n = 1 to n = 50; read-out: SMYD2 Biochem IC50
Excerpt: S-adenosylmethionine (SAM), S-adenosylhomocysteine (SAH), bicine, Tween20, dimethylsulfoxide (DMSO), bovine skin gelatin (BSG), and Tris(2-carboxyethyl)phosphine hydrochloride (TCEP) were purchased from Sigma-Aldrich at the highest level of purity possible. ^3H-SAM was purchase from American Radiolabeled Chemicals with a specific activity of 80 Ci/mmol. 384-well streptavidin Flashplates were purchased from PerkinElmer.
Peptide was synthesized with a N-terminal linker-affinity tag motif and a C-terminal amide cap by 21st Century Biochemicals. The peptide was high-performance liquid chromatography (HPLC) purified to greater than 95% purity and confirmed by liquid chromatography mass spectrometry (LC-MS). The sequence was […](K-Biot)-amide. (SEQ ID No: 3)
Full length SMYD2 (NP 064582.2) was cloned into a pFastbac-Htb-lic vector with an N-terminal His6 tag and FLAG tag, preceded by a TEV protease cleavage site. The protein was expressed in Sf9 insect cells. Cells were resuspended in lysis buffer (25 mM HEPES-NaOH, pH 7.5, 200 mM NaCl, 5% glycerol, and 5 mM β-ME) and lysed by sonication. The protein was purified by Ni-NTA (Qiagen), followed by TEV cleavage to remove the His6 tag, subtractive Ni-NTA (Qiagen), and gel filtration chromatography using an […] (GE Healthcare). Purified protein was stored in 20 mM Tris-HCl, pH 8.0, 100 mM NaCl, and 1 mM TCEP.
The assays were all performed in a buffer consisting of 20 mM Bicine (pH=7.6), 1 mM TCEP, 0.005% Bovine Skin Gelatin, and 0.002% Tween20, prepared on the day of use. Compounds in 100% DMSO (1 ul) were spotted into a polypropylene 384-well V-bottom plates (Greiner) using a Platemate Plus outfitted with a 384-channel head (Thermo Scientific). DMSO (1 ul) was added to Columns 11, 12, 23, 24, rows A-H for the maximum signal control and 1 ul of SAH, a known product and inhibitor of SMYD2, was added to columns 11, 12, 23, 24, rows I-P for the minimum signal control. A cocktail (40 ul) containing the SMYD2 enzyme was added by Multidrop Combi (Thermo-Fisher). The compounds were allowed to incubate with SMYD2 for 30 min at room temperature, then a cocktail (10 ul) containing ^3H-SAM and peptide was added to initiate the reaction (final volume=51 ul). The final concentrations of the components were as follows: SMYD2 was 1.5 nM, ^3H-SAM was 10 nM, and peptide was 60 nM, SAH in the minimum signal control wells was 1000 uM, and the DMSO concentration was 2%. The assays were stopped by the addition of non-radioactive SAM (10 ul) to a final concentration of 600 uM, which dilutes the ^3H-SAM to a level where its incorporation into the peptide substrate is no longer detectable. 50 ul of the reaction in the 384-well polypropylene plate was then transferred to a 384-well Flashplate and the biotinylated peptides were allowed to bind to the streptavidin surface for at least 1 hour before being washed three times with 0.1% Tween20 in a Biotek ELx405 plate washer. The plates were then read in a PerkinElmer TopCount plate reader to measure the quantity of ^3H-labeled peptide bound to the Flashplate surface, measured as disintegrations per minute (dpm) or alternatively, referred to as counts per minute (cpm).
Where dpm=disintegrations per minute, cmpd=signal in assay well, and min and max are the respective minimum and maximum signal controls.
Where top and bottom are the normally allowed to float, but may be fixed at 100 or 0 respectively in a 3-parameter fit. The Hill Coefficient normally allowed to float but may also be fixed at 1 in a 3-parameter fit. I is the compound concentration.
SMYD2 biochemical assay data for representative Compounds of the Disclosure are presented in Tables 1-3 in the column titled “SMYD2 Biochem IC50 (μM).”

T1 sequence (Q9NRG4 whole entry): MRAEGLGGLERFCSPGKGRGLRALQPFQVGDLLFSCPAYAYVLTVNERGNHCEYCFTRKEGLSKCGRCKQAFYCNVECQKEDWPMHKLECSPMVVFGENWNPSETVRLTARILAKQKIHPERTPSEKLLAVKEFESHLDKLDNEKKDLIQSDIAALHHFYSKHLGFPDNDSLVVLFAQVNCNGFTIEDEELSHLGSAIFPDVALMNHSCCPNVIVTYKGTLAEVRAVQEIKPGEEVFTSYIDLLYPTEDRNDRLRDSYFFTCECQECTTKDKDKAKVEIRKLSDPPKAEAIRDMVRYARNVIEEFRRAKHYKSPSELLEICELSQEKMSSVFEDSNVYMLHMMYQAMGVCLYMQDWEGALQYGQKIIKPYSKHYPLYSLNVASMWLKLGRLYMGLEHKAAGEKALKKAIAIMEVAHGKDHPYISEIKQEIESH

Q: For `C[C@H]1CN(CCN)C[C@H]1NC(=O)c1cc(C2CC2)on1` (racemic) [compound 78, (±)-cis-N-(1-(2-aminoethyl)-4-methylpyrrolidin-3-yl)-5-cyclopropylisoxazole-3-carboxamide], which IC50 is on record?
A: 27.5 µM

Q: `C[C@@H]1CN(C2CCN(C(=O)OC(C)(C)C)CC2)C[C@@H]1NC(=O)c1cc(C2CC2)on1` (racemic) [compound 80, (±)-cis-tert-butyl 4-(3-(5-cyclopropylisoxazole-3-carboxamido)-4-methylpyrrolidin-1-yl)piperidine-1-carboxylate] was tested. Which IC50 did it give?
A: 30.5 µM

Q: With `C[C@@H]1CN(C2CCNCC2)C[C@@H]1NC(=O)c1cc(C2CC2)on1` (racemic) [compound 81, (±)-cis-5-cyclopropyl-N-(4-methyl-1-(piperidin-4-yl)pyrrolidin-3-yl)isoxazole-3-carboxamide] as the molecule, how does the IC50 read?
A: > 50 µM

Q: `C[C@@H]1CN(C2CCN(C)CC2)C[C@@H]1NC(=O)c1cc(C2CC2)on1` (racemic) [compound 82, (±)-cis-5-cyclopropyl-N-(4-methyl-1-(1-methylpiperidin-4-yl)pyrrolidin-3-yl)isoxazole-3-carboxamide] was tested. Which IC50 did it give?
A: > 50 µM

Q: With `CC(=O)N1CCC(N2C[C@@H](C)[C@@H](NC(=O)c3cc(C4CC4)on3)C2)CC1` (racemic) [compound 83, (±)-cis-N-(1-(1-acetylpiperidin-4-yl)-4-methylpyrrolidin-3-yl)-5-cyclopropylisoxazole-3-carboxamide] as the molecule, how does the IC50 read?
A: > 50 µM

Q: How did the IC50 turn out when `C[C@@H]1CN(Cc2cccnc2)C[C@H]1NC(=O)c1cc(C2CC2)on1` (racemic) [compound 84, (±)-trans-5-cyclopropyl-N-(4-methyl-1-(pyridin-3-ylmethyl)pyrrolidin-3-yl)isoxazole-3-carboxamide] was run?
A: > 50 µM

Q: For `C[C@@H]1CN(Cc2ccncc2)C[C@H]1NC(=O)c1cc(C2CC2)on1` (racemic) [compound 85, (±)-trans-5-cyclopropyl-N-(4-methyl-1-(pyridin-4-ylmethyl)pyrrolidin-3-yl)isoxazole-3-carboxamide], which IC50 is on record?
A: > 50 µM

Q: Which IC50 does the source give for `C[C@@H]1CN(Cc2ccccn2)C[C@H]1NC(=O)c1cc(C2CC2)on1` (racemic) [compound 87, (±)-trans-5-cyclopropyl-N-(4-methyl-1-(pyridin-2-ylmethyl)pyrrolidin-3-yl)isoxazole-3-carboxamide] here?
A: > 50 µM

Q: Which IC50 does the source give for `CCN1C[C@@H](C)[C@H](NC(=O)c2cc(C3CC3)on2)C1` (racemic) [compound 88, (±)-trans-5-cyclopropyl-N-(1-ethyl-4-methylpyrrolidin-3-yl)isoxazole-3-carboxamide] here?
A: 34.2 µM

Q: Which IC50 does the source give for `CC(=O)N1C[C@@H](C)[C@H](NC(=O)c2cc(C3CC3)on2)C1` (racemic) [compound 89, (±)-trans-N-(1-acetyl-4-methylpyrrolidin-3-yl)-5-cyclopropylisoxazole-3-carboxamide] here?
A: > 50 µM

Q: Which IC50 does the source give for `C[C@@H]1CN(S(C)(=O)=O)C[C@H]1NC(=O)c1cc(C2CC2)on1` (racemic) [compound 90, (±)-trans-5-cyclopropyl-N-(4-methyl-1-(methylsulfonyl)pyrrolidin-3-yl)isoxazole-3-carboxamide] here?
A: > 50 µM

Q: With `C[C@H]1CN(S(=O)(=O)C2CCNCC2)C[C@@H]1NC(=O)c1cc(C2CC2)on1` (racemic) [compound 91, (±)-trans-5-cyclopropyl-N-(4-methyl-1-(piperidin-4-ylsulfonyl)pyrrolidin-3-yl)isoxazole-3-carboxamide] as the molecule, how does the IC50 read?
A: > 50 µM

Q: `C[C@H]1CN(C(=O)CN)C[C@@H]1NC(=O)c1cc(C2CC2)on1` (racemic) [compound 92, (±)-trans-5-cyclopropyl-N-(1-glycyl-4-methylpyrrolidin-3-yl)isoxazole-3-carboxamide] was tested. Which IC50 did it give?
A: > 50 µM

Q: With `C[C@H]1CN(C(=O)CO)C[C@@H]1NC(=O)c1cc(C2CC2)on1` (racemic) [compound 93, (±)-trans-5-cyclopropyl-N-(1-(2-hydroxyacetyl)-4-methylpyrrolidin-3-yl)isoxazole-3-carboxamide] as the molecule, how does the IC50 read?
A: > 50 µM

Q: With `C[C@@H]1CN(C(=O)C2CCNCC2)C[C@H]1NC(=O)c1cc(C2CC2)on1` (racemic) [compound 94, (±)-trans-5-cyclopropyl-N-(4-methyl-1-(piperidine-4-carbonyl)pyrrolidin-3-yl)isoxazole-3-carboxamide] as the molecule, how does the IC50 read?
A: > 50 µM

Q: Which IC50 does the source give for `C[C@H]1CN(C(=O)CC2CCNCC2)C[C@@H]1NC(=O)c1cc(C2CC2)on1` (racemic) [compound 95, (±)-trans-5-cyclopropyl-N-(4-methyl-1-(2-(piperidin-4-yl)acetyl)pyrrolidin-3-yl)isoxazole-3-carboxamide] here?
A: > 50 µM

Q: Which IC50 does the source give for `C[C@@H]1CN(C2CCCCC2)C[C@H]1NC(=O)c1cc(C2CC2)on1` (racemic) [compound 96, (±)-trans-N-(1-cyclohexyl-4-methylpyrrolidin-3-yl)-5-cyclopropylisoxazole-3-carboxamide] here?
A: > 50 µM

Q: How did the IC50 turn out when `C[C@@H]1CN(C2CCOCC2)C[C@H]1NC(=O)c1cc(C2CC2)on1` (racemic) [compound 97, (±)-trans-5-cyclopropyl-N-(4-methyl-1-(tetrahydro-2H-pyran-4-yl)pyrrolidin-3-yl)isoxazole-3-carboxamide] was run?
A: > 50 µM

Q: `C[C@@H]1CN(C2CCCC2)C[C@H]1NC(=O)c1cc(C2CC2)on1` (racemic) [compound 99, (±)-trans-N-(1-cyclopentyl-4-methylpyrrolidin-3-yl)-5-cyclopropylisoxazole-3-carboxamide] was tested. Which IC50 did it give?
A: 48.7 µM

Q: With `C[C@@H]1CN(CCS(C)(=O)=O)C[C@H]1NC(=O)c1cc(C2CC2)on1` (racemic) [compound 100, (±)-trans-5-cyclopropyl-N-(4-methyl-1-(2-(methyl-sulfonyl)ethyl)pyrrolidin-3-yl)isoxazole-3-carboxamide] as the molecule, how does the IC50 read?
A: > 50 µM

Q: With `C[C@@H]1CN(CCN)C[C@H]1NC(=O)c1cc(C2CC2)on1` (racemic) [compound 101, (±)-trans-N-(1-(2-aminoethyl)-4-methylpyrrolidin-3-yl)-5-cyclopropylisoxazole-3-carboxamide] as the molecule, how does the IC50 read?
A: > 50 µM

Q: For `C[C@@H]1CN(C2CCN(C(=O)OC(C)(C)C)CC2)C[C@H]1NC(=O)c1cc(C2CC2)on1` (racemic) [compound 103, (±)-trans-tert-butyl 4-((3S,4R)-3-(5-cyclopropylisoxazole-3-carboxamido)-4-methylpyrrolidin-1-yl)piperidine-1-carboxylate], which IC50 is on record?
A: > 50 µM

Q: `C[C@@H]1CN(C2CCNCC2)C[C@H]1NC(=O)c1cc(C2CC2)on1` (racemic) [compound 104, (±)-trans-5-cyclopropyl-N-((3S,4R)-4-methyl-1-(piperidin-4-yl)pyrrolidin-3-yl)isoxazole-3-carboxamide] was tested. Which IC50 did it give?
A: > 50 µM

Q: `C[C@@H]1CN(C2CCN(C)CC2)C[C@H]1NC(=O)c1cc(C2CC2)on1` (racemic) [compound 105, (±)-trans-5-cyclopropyl-N-((3S,4R)-4-methyl-1-(1-methylpiperidin-4-yl)pyrrolidin-3-yl)isoxazole-3-carboxamide] was tested. Which IC50 did it give?
A: > 50 µM

Q: How did the IC50 turn out when `CC(=O)N1CCC(N2C[C@@H](C)[C@H](NC(=O)c3cc(C4CC4)on3)C2)CC1` (racemic) [compound 106, (±)-trans-N-(1-(1-acetylpiperidin-4-yl)-4-methylpyrrolidin-3-yl)-5-cyclopropylisoxazole-3-carboxamide] was run?
A: > 50 µM

Q: `C[C@H]1CN(Cc2cccnc2)C[C@H]1NC(=O)c1cc(C2CC2)on1` (racemic) [compound 107, (±)-cis-5-cyclopropyl-N-(4-methyl-1-(pyridin-3-ylmethyl)pyrrolidin-3-yl)isoxazole-3-carboxamide] was tested. Which IC50 did it give?
A: 17.7 µM
